For one assay, the target named is GABA B receptor (Rattus norvegicus, UniProt O88871+Q9Z0U4). In words: Displacement of [3H]baclofen from Gamma-aminobutyric acid type B receptor in rat brain membranes. In kind it is cell membranes. A general note: Loss of bound radioactivity is the signal in a displacement assay; it reports binding, not function.
Assay [1] concerns the target GABA-A receptor; anion channel. In words: Displacement of [3H]GABA from Gamma-aminobutyric acid A (GABA-A) receptor in rat brain membranes. The class given is cell membranes.
The species named for another assay is Rattus norvegicus. In words: The inhibitory concentration of compound against sodium dependent [3H]GABA synaptosomal uptake in rats. The class given is functional.

Sequence of GABA B receptor (Q9Z0U4 whole entry): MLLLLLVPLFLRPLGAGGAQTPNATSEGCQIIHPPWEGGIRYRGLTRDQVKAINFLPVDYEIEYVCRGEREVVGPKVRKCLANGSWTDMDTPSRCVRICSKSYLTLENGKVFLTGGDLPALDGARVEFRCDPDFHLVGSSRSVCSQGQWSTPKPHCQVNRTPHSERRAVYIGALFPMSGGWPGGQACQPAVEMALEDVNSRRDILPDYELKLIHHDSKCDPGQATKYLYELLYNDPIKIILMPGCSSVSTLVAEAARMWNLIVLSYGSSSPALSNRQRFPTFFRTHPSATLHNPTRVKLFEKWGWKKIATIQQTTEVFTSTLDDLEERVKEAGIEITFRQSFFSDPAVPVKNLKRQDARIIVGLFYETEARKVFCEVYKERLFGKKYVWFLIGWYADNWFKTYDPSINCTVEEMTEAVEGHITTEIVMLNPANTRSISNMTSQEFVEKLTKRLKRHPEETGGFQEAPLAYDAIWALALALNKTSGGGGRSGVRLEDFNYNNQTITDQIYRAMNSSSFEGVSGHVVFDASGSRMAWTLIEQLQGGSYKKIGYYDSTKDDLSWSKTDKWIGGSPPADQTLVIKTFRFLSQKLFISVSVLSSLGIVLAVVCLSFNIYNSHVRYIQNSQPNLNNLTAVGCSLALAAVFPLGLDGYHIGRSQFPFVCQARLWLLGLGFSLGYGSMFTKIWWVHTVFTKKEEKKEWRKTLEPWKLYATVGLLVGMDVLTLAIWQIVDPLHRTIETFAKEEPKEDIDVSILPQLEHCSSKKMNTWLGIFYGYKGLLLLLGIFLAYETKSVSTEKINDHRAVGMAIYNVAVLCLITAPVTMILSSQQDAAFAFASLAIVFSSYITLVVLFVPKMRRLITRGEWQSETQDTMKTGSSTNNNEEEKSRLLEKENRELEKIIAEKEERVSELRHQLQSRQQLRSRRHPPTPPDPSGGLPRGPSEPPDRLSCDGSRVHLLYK
Sequence of GABA B receptor (O88871 whole entry): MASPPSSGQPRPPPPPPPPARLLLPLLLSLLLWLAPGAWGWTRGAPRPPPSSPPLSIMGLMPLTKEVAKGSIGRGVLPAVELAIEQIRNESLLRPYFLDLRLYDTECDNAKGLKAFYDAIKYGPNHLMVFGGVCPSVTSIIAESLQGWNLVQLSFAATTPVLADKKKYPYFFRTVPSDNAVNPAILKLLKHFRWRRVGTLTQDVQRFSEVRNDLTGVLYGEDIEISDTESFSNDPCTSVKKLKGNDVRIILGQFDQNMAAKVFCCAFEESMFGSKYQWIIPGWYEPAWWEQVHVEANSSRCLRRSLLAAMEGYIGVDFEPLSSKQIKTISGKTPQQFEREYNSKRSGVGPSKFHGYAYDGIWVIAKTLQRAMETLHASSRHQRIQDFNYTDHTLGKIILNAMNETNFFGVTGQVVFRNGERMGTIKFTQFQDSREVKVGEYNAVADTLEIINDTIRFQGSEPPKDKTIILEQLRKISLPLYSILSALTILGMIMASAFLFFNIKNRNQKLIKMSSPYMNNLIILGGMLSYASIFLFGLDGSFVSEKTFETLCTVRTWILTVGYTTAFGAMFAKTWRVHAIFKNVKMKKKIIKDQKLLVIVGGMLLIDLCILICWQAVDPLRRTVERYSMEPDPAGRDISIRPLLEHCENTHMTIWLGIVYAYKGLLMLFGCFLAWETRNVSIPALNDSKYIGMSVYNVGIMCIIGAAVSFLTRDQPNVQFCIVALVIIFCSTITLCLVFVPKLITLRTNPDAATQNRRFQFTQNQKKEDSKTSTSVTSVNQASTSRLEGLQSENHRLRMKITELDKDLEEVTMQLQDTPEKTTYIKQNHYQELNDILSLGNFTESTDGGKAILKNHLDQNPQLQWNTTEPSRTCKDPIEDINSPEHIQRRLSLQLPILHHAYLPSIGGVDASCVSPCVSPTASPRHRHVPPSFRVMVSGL

The IC50 is the concentration needed to halve the response being measured. A higher IC50 goes with weaker potency. Turning to `NCC1CC(=O)C=C(O)C1` (stereo not drawn), the IC50 at GABA B receptor was over 100 µM; in assay [1], 65 µM; in the assay listed under Rattus norvegicus, over 100 µM.
Take `NCC(CC(=O)O)c1ccc(Cl)cc1` (stereo not drawn) [BACLOFEN]: the IC50 in assay [1] was found to be 0.03 µM; in the assay filed under Rattus norvegicus, 1.8 µM.
As for `O=C(O)C1CCCNC1` (stereo not drawn) [NIPECOTIC ACID], the IC50 at GABA B receptor was over 100 µM; in assay [1] it was over 100 µM; in the assay filed under Rattus norvegicus, 5.6 µM.
